From ChEMBL document CHEMBL4334535, “Novel Pyrazolyl-dihydroisoquinolines as Positive Allosteric Modulator of the Dopamine D1 Receptor” (ACS Med Chem Lett, 2020)
Calls of active or inactive are those of the source. The rule behind the calls is not given here.

Columns and labels:
[1] = target: T1, D(1A) dopamine receptor (Homo sapiens, UniProt P21728); assay: Potentiation of dopamine-induced positive allosteric modulation of human D1 receptor expressed in HEK293 cells assessed as cAMP production measured after 60 to 90 mins by HTRF assay relative to control; format: functional, cell-based; design: concentration or dose not given beside the values
T1 sequence (P21728 whole entry): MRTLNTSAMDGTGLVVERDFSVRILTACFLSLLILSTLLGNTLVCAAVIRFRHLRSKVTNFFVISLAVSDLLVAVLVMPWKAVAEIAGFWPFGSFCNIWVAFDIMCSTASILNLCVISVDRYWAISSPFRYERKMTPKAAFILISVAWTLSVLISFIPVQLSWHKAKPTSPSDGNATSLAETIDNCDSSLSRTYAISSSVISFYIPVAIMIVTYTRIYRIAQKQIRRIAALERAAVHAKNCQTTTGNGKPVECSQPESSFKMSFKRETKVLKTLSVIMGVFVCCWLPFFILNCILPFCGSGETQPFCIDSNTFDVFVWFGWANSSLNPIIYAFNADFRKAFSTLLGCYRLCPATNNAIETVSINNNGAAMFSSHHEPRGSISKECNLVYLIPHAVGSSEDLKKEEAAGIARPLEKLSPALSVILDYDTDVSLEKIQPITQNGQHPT

[2] = system: Mus musculus; assay: Increase in basal locomotor activity in transgenic knockout C57BL/6 mouse expressing human D1 receptor mouse at 10 ml/kg, po measured every 10 mins for 60 mins by automated system analysis; format: functional, organism-based
[3] = target: T1, D(1A) dopamine receptor; assay: Positive allosteric modulation of human D1 receptor expressed in HEK293 assessed as cAMP production incubated for 60 mins by HTRF assay; format: functional, cell-based

Structure (SMILES) | Activity [1] | Activity [2] | EC50 [3]
C[C@H]1c2cccc(-c3cn[nH]c3)c2C[C@H](CO)N1C(=O)Cc1cc(F)ccc1Cl | 79.8% | – | –
C[C@H]1c2cccc(-c3cn[nH]c3)c2C[C@H](CO)N1C(=O)Cc1c(F)cccc1F | 78.1% | – | –
C[C@H]1c2cccc(-c3cnn(C)c3)c2C[C@H](CO)N1C(=O)Cc1ccccc1Cl | 80.4% | – | –
C[C@H]1c2cccc(-c3cnn(C)c3)c2C[C@H](CO)N1C(=O)Cc1c(Cl)cccc1Cl | 91.4% | Active | –
C[C@H]1c2cccc(-c3cnn(C4CC4)c3)c2C[C@H](CO)N1C(=O)Cc1c(Cl)cccc1Cl | 88.1% | – | –
CCn1cc(-c2cccc3c2C[C@H](CO)N(C(=O)Cc2c(Cl)cccc2Cl)[C@H]3C)cn1 | 91.2% | – | –
C[C@H]1c2cccc(-c3cn[nH]c3)c2C[C@H](CO)N1C(=O)Cc1c(F)cccc1Cl | 81.5% | – | –
C[C@H]1c2cccc(-c3cnn(CCO)c3)c2C[C@H](CO)N1C(=O)Cc1c(Cl)cccc1Cl | 79.1% | – | 18.3 nM
C[C@H]1c2cccc(-c3cn[nH]c3)c2C[C@H](CO)N1C(=O)Cc1ccc(F)cc1Cl | 77.1% | – | –
C[C@H]1c2cccc(-c3cn[nH]c3)c2C[C@H](CO)N1C(=O)Cc1c(Cl)cccc1Cl | 75.9% | Active | –
